# Patent publication US10532085B2, “Methods for increasing intracellular activity of Hsp70” (Orphazyme A/S, priority 2010, dated 2020)
# B1: rASM: recombinant acid sphingomyelinase (protein, UniProt P17405 47-631, looked up)
# Sphingomyelin …: LALSDSRVLWAPAEAHPLSPQGHPARLHRIVPRLRDVFGWGNLTCPICKGLFTAINLGLKKEPNVARVGSVAIKLCNLLKIAPPAVCQSIVHLFEDDMVEVWRRSVLSPSEACGLLLGSTCGHWDIFSSWNISLPTVPKPPPKPPSPPAPGAPVSRILFLTDLHWDHDYLEGTDPDCADPLCCRRGSGLPPASRPGAGYWGEYSKCDLPLRTLESLLSGLGPAGPFDMVYWTGDIPAHDVWHQTRQDQLRALTTVTALVRKFLGPVPVYPAVGNHESTPVNSFPPPFIEGNHSSRWLYEAMAKAWEPWLPAEALRTLRIGGFYALSPYPGLRLISLNMNFCSRENFWLLINSTDPAGQLQWLVGELQAAEDRGDKVHIIGHIPPGHCLKSWSWNYYRIVARYENTLAAQFFGHTHVDEFEVFYDEETLSRPLAVAFLAPSATTYIGLNPGYRVYQIDGNYSGSSHVVLDHETYILNLTQANIPGAIPHWQLLYRARETYGLPNTLPTAWHNLVYRMRGDMQLFQTFWFLYHKGHPPSEPCGTPCRLATLCAQLSARADSPALCRHLMPDGSLPEAQSLWPRPLFC
# Assays:
# [1] = target: T1, Hsp70 chaperone (Homo sapiens, UniProt P0DMV8, W90F); assay: Structural and functional aspects of the Hsp70 chaperone (circular dichroism, luciferase folding, ATP hydrolysis); type: biochemical; conditions: far- and near-UV circular dichroism
# T1 construct: made in house
# [2] = Tryptophan fluorescence shift upon docking into BMP-containing liposomes; type: binding
# Description: In order to investigate which part of the Hsp70 protein is responsible for the BMP binding, we measured the fluorescence shift of the tryptophans upon docking of rHsp70 and its mutants into BMP-containing liposomes. […] Next, we substituted the two tryptophans in Hsp70 with phenylalanines (W90F and W580F) and studied which tryptophan is responsible for the fluorescence shift induced by lipid binding. […] A more quantitative BIAcore analysis of the BMP—rHsp70 interaction confirmed that Hsp70 interacted with BMP mainly through its ATPase domain. […] Thus, the rHsp70-W90F mutant provided us with an invaluable tool to further test whether the direct interaction between Hsp70 and BMP endows Hsp70 with its lysosome protective attributes. […] Importantly, mutant Hsp70 proteins were endocytosed essentially as effectively as the wild type Hsp70.
# The tryptophan fluorescence spectra (RFI) and liposome 90° light scattering (RSI) were analyzed in a HEPES buffer (20 mM HEPES, 0.1 mM EDTA, pH 7.4 or 6.0 as indicated) employing LUVs consisting of indicated lipids essentially as described in the art. For the RFI, LUVs were added in 10 μM aliquots and spectra recorded after a 20 min stabilization period. For the RSI, recombinant proteins were added in 0.12 nmol aliquots.
# [3] = system: cisplatin-induced lysosomal cell death; assay: Cisplatin-induced lysosomal cell death; type: cell-based
# Description: Thus, we investigated the interaction of Hsp70 with palmitoyl-oleoyl-phosphatidylcholine (POPC) large unilamellar vesicles (LUVs) containing various membrane-associated anionic lipids, i.e. palmitoyl-oleoyl-phosphatidylserine (POPS; primarily in plasma membrane), cardiolipin (primarily mitochondrial) and BMP (primarily in late endosomes/lysosomes). Taking into account the increasingly acidic milieu of the endo-lysosomal compartment upon maturation to lysosomes, we compared the protein-lipid interactions in neutral (pH 7.4) and acidic (pH 6.0) conditions. […]
# (§1) In order to investigate which part of the Hsp70 protein is responsible for the BMP binding, we measured the fluorescence shift of the tryptophans upon docking of rHsp70 and its mutants into BMP-containing liposomes. […] Next, we substituted the two tryptophans in Hsp70 with phenylalanines (W90F and W580F) and studied which tryptophan is responsible for the fluorescence shift induced by lipid binding. […] A more quantitative BIAcore analysis of the BMP—rHsp70 interaction confirmed that Hsp70 interacted with BMP mainly through its ATPase domain. […]
# Cell density was assessed by the 3-(4,5-dimethylthiazole-2-y)-2,5-[…] (MTT, SIGMA-Aldrich) reduction assay essentially as described in the art. […] For each experiment a minimum of eight randomly chosen areas were counted.
# [4] = Surface plasmon resonance (BIAcore) BMP interaction; type: binding; conditions: acidic pH
# Description: Thus, we investigated the interaction of Hsp70 with palmitoyl-oleoyl-phosphatidylcholine (POPC) large unilamellar vesicles (LUVs) containing various membrane-associated anionic lipids, i.e. palmitoyl-oleoyl-phosphatidylserine (POPS; primarily in plasma membrane), cardiolipin (primarily mitochondrial) and BMP (primarily in late endosomes/lysosomes). Taking into account the increasingly acidic milieu of the endo-lysosomal compartment upon maturation to lysosomes, we compared the protein-lipid interactions in neutral (pH 7.4) and acidic (pH 6.0) conditions. […] As reported earlier for POPS, all negatively charged lipids enhanced the binding of rHsp70 to the liposomes at neutral pH approximately 4-fold irrespective of the charge density on the liposome surface (ranging from −1 to −2).
# as §1
# [5] = system: U-2-OS cells; assay: Lysosomal integrity upon photo-oxidation (acridine orange and blue light); type: cell-based, Human; conditions: recombinant proteins 300 nM, 24 h
# Description: FIG. 2: Lysosomal Hsp70 stabilizes lysosomal membranes. (a) Representative confocal images of U-2-OS cells incubated with 300 nM rHsp70-AF488 (green) for 24 h, fixed and stained for lysosomal integral membrane protein-1 (LIMP-1; red). For co-localization with other organelle markers see FIG. 3. (b) U-2-OS cells were incubated with 300 nM rHsp70-AF488 for 24 h before quantification of rHsp70-AF488 in membranes (memb.) and supernatant (sup.) obtained by repeated freeze/thaw cycles and centrifugation the light membrane fraction (LMF). […] (c) Representative still images of U-2-OS cells exposed to photo-oxidation (acridine orange and blue light). The loss of lysosomal integrity is visualized by the loss of red and increase in green staining. (d and e) U-2-OS cells were incubated with indicated recombinant proteins (300 nM) for 24 h, and analyzed for lysosomal integrity upon photo-oxidation. When indicated, cells were treated with indicated siRNAs for 48 h prior to the addition of recombinant proteins (e). The values represent means±SD (standard deviation) for three (d) or five (e) independent experiments. Representative immunoblots of indicated proteins from U-2-OS cells left untreated or treated with control or Hsp70 siRNAs are shown on the right. Scale bars: 20 μm (a and c).
# WT- and Hsp70-MEFs were generated, immortalized and maintained as described in the art. Human NPDA fibroblasts (83/24) originate from a skin biopsy of a patient with hepatosplenomegaly. Recombinant proteins were generated using the pET-16b vector system and Ni^2+-affinity-purification (Novagen), and labeled with Alexa Fluor 488 according to manufacturers protocol (Molecular Probes). To analyze the lysosomal integrity, we developed a real time imaging method of cells stained with acridine orange, a metachromatic weak base that accumulates in the acidic compartment of the cells staining them red and sensitizing them to photo-oxidation. The photo-oxidation-induced loss of the lysosomal pH-gradient and leakage of acridine orange to the cytosol from individual lysosomes was quantified visually as “loss of red dots” in U2-O—S cells and as a decrease in red and an increase in green fluorescence by Zeiss LSM DUO Software in fibroblasts. The total and cytoplasmic (digitonin-extracted) cathepsin activities were measured in digitonin-treated samples using zFR-AFC (Enzyme System Products) probe as described in the art. The tryptophan fluorescence spectra and liposome 90° light scattering were analyzed in a HEPES buffer (20 mM HEPES, 0.1 mM EDTA, pH as indicated) essentially as described in the art. Surface plasmon resonance measurements were performed with immobilized LUVs using a BIAcore 2000 system as described in the art. Hsp70 siRNA (5′-[…]-3′) and a […] were transfected with Oligofectamine (Invitrogen). Immunodetection was performed with standard protocols. Apoptosis-like cell death and lysosomal membrane permeabilization were analyzed essentially as described in the art. ASM activity was analyzed by Amplex Red Sphingomyelinase Assay Kit (A12220) from Molecular Probes with modifications described in the art. Statistical analysis was performed using a two-tailed, paired Student's T-test and all groups of data were tested for the comparability of their variances using an F-test.
# Sub-confluent cells incubated with 2 μg/ml acridine orange for 15 min at 37° C. were washed, irradiated and analyzed in Hanks balanced salt solution complemented with 3% fetal calf serum. Cells for single cell imaging were selected from 8 pre-defined areas of each well in transmitted light-mode after which the same cells were immediately visualized and exposed to blue light from USH102 100W mercury arc burner (Ushio electric) installed in a U-ULS100HG housing (Olympus) for 20 sec. Fluorescence microscopy was performed on Olympus IX-70 inverted microscope with a LCPlanF1 ×20 objective with NA=0.40. […]
# [6] = system: MEFs; type: cell-based
# Description: (§2) BMP binds ASM with high affinity and stimulates its ability to hydrolyze sphingomyelin to ceramide and phosphorylcholine. […] In order to test whether ASM is responsible for the lysosome stabilizing effect we treated the cells with desipramine, a well characterized pharmacological ASM inhibitor. […] It should be noted that akin to rHsp70, also rASM localized to the lysosomes.
# Cell density was assessed by the 3-(4,5-dimethylthiazole-2-y)-2,5-[…] (MTT, SIGMA-Aldrich) reduction assay essentially as described in the art. Apoptosis-like cell death was assessed by staining the cells with 0.05 μg/ml Hoechst 33342 (Molecular Probes) and counting cells with condensed nuclei in an inverted Olympus IX-70 fluorescent Microscope (Filter U-MWU 330-385 nm). For each experiment a minimum of eight randomly chosen areas were counted.
# [7] = system: Hsp70-MEFs; assay: Lysosomal membrane integrity upon photo-oxidation in Hsp70-MEFs; type: cell-based, murine; conditions: subtoxic concentration
# Description: as §2
# (§3) Sub-confluent cells incubated with 2 μg/ml acridine orange for 15 min at 37° C. were washed, irradiated and analyzed in Hanks balanced salt solution complemented with 3% fetal calf serum. Cells for single cell imaging were selected from 8 pre-defined areas of each well in transmitted light-mode after which the same cells were immediately visualized and exposed to blue light from USH102 100W mercury arc burner (Ushio electric) installed in a U-ULS100HG housing (Olympus) for 20 sec. Fluorescence microscopy was performed on Olympus IX-70 inverted microscope with a LCPlanF1 ×20 objective with NA=0.40. Loss of lysosomal pH gradient was quantified by counting the loss of intense red staining. A more elaborate method for assaying lysosomal integrity was developed to handle the larger lysosomal compartment of the various fibroblasts used in this study. […] The resulting timelapse movies where subsequently analysed by the integrated Zeiss LSM DUO software.
# [8] = system: MEFs; type: cell-based; remark: listed apart in the source
# Description: as §2
# The total and cytoplasmic (digitonin-extracted) cathepsin activities were measured in digitonin-treated samples using zFR-AFC (Enzyme System Products) probe as described in the art.
# [9] = system: ASM; assay: ASM activity in NPDA patient cells; type: cell-based, Human; conditions: loading the lysosomes of patient cells
# Description: as §2
# WT- and Hsp70-MEFs were generated, immortalized and maintained as described in the art. Human NPDA fibroblasts (83/24) originate from a skin biopsy of a patient with hepatosplenomegaly. […] The photo-oxidation-induced loss of the lysosomal pH-gradient and leakage of acridine orange to the cytosol from individual lysosomes was quantified visually as “loss of red dots” in U2-O—S cells and as a decrease in red and an increase in green fluorescence by Zeiss LSM DUO Software in fibroblasts. The total and cytoplasmic (digitonin-extracted) cathepsin activities were measured in digitonin-treated samples using zFR-AFC (Enzyme System Products) probe as described in the art. The tryptophan fluorescence spectra and liposome 90° light scattering were analyzed in a HEPES buffer (20 mM HEPES, 0.1 mM EDTA, pH as indicated) essentially as described in the art. […] Apoptosis-like cell death and lysosomal membrane permeabilization were analyzed essentially as described in the art. […]
# [10] = system: NPDA cells; assay: Volume of the lysosomal compartment in NPDA cells; type: cell-based, Human
# Description: as §2
# Primary antibodies used included mouse monoclonal antibodies against Hsp70 (2H9; kindly provided by Boris Margulis, Russian Academy of Sciences, St. Petersburg, Russia), glyceraldehyde-3-phosphate dehydrogenase (GAPDH; Biogenesis), BMP (6C4), lysosomal integral membrane protein-1 (H5C6; developed by J. Thomas August and James E. K. Hildreth and obtained from the Developmental Studies Hybridoma Bank developed under the auspices of the NICHD and maintained by The University of Iowa, Department of Biological Sciences, Iowa City, USA). Proteins separated by 10% SDS-PAGE and transferred to a nitrocellulose membrane were detected by using indicated primary antibodies, appropriate peroxidase-conjugated secondary antibodies from Dako, ECL Western blotting reagents (Amersham), and Luminescent Image Reader (LAS-1000Plus, Fujifilm). For immunocytochemistry Alexa […] or Alexa Fluor®-488-conjugated secondary antibodies were used. […] Fluorescence images were taken using a Zeiss Axiovert 100M laser scanning microscope. […]
# [11] = system: NPDA cells; assay: Lysosomal stability in NPDA cells; type: cell-based, Human
# Description: as §2, §3
# T1 sequence (P0DMV8 whole entry W90F): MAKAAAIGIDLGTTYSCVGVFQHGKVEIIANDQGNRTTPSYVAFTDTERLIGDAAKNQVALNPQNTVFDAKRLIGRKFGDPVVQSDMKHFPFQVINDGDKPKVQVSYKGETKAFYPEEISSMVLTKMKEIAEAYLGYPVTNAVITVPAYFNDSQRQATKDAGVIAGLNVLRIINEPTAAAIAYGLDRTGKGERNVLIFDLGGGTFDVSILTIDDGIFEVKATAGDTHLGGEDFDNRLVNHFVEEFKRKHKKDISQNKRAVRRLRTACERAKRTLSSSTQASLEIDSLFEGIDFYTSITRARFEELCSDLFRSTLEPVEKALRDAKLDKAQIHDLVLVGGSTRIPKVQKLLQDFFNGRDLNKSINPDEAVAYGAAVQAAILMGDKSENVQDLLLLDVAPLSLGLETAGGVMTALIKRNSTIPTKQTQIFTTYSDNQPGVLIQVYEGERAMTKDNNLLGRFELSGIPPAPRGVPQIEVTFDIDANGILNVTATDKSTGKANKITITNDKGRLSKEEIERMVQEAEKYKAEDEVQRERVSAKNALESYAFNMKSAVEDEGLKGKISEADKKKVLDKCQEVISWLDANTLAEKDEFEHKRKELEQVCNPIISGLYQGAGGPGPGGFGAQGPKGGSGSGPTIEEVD
molecule,measurement,setting,value
rHsp70-W90F: rHsp70 mutant with tryptophan 90 substituted with phenylalanine,structural and functional aspects of the chaperone,[1],retaining the structural (folding as analyzed by far- and near-UV circular dichroism) and functional (luciferase folding and ATP hydrolysis) aspects
same,relative peak fluorescence intensity (tryptophan fluorescence shift),[2],reduction of the signal
same,protection of cells against cisplatin-induced lysosomal cell death,[3],completely lost its ability to protect
same,interaction with BMP (BIAcore),[4],specifically abolished the interaction between rHsp70 and BMP
same,protection of lysosomes against photo-oxidation (lysosomal stabilization),[5],completely lost its ability to protect
"CNCCCN1c2ccccc2CCc2ccccc21 [Desipramine, desipramine]",viability of MEFs,[6],reduced the viability of MEFs in a dose-dependent manner
same,lysosomal stress resistance of Hsp70-MEFs upon photo-oxidation,[7],reverted the lysosomal stress resistance of Hsp70-MEFs to the level of WT-MEFs
same,permeabilization of lysosomes,[8],massive permeabilization of lysosomes
"Hsp70-2: recombinant Hsp70-2, 84% identical to the amino acid sequence of Hsp70",protection of lysosomes against photo-oxidation (lysosomal stabilization),[5],no lysosomal stabilization
rHsp70-W580F: rHsp70 mutant with tryptophan 580 substituted with phenylalanine,protection of cells against cisplatin-induced lysosomal cell death,[3],same protective effect as the wild-type protein
same,protection of lysosomes against photo-oxidation (lysosomal stabilization),[5],same protective effect as the wild-type protein
"Hsc70: recombinant Hsc70, 86% identical to the amino acid sequence of Hsp70",protection of lysosomes against photo-oxidation (lysosomal stabilization),[5],no lysosomal stabilization
B1,ASM activity in NPDA patient cells,[9],increased ASM activity
same,volume of the enlarged lysosomal compartment in NPDA cells,[10],normalize the volume
same,stabilization of lysosomes in NPDA cells,[11],stabilize the lysosomes
